Measured values: US20040082558A1, “Administration of estradiol metabolites for inhibition of drug-induced nephrotoxicity” (priority 2002, published 2004)

Legend:
Assay type in all cases: in vivo, rat
PAN-nephropathic rats [1] = test: Acute measurements of renal hemodynamics and excretory function at 12 weeks; conditions: 12 weeks of treatment
Protocol: (§1) After baseline metabolic parameters were measured, animals were randomly assigned to receive subcutaneous saline (3 ml/kg; Control group, n=9) or puromycin aminonucleoside (PAN) (75 mg/kg; drug-induced nephrotoxic animals, n=26). PAN is a drug widely used to produce drug-induced nephrotoxicity in laboratory animals. Grond, J., et al., Contributions to Nephrology 60:83 (1988), the disclosure of which is incorporated herein by reference. Injections of PAN (20 mg/kg) were repeated after 2, 4, 8 and 10 weeks of treatment. Three hours after the initial injections, control animals were implanted with osmotic minipumps (model 2ML4, Alza, Palo Alto, Calif.) containing vehicle (polyethylene glycol 400, 2.5 μl/hour), whereas PAN-treated animals were implanted with osmotic minipumps containing either vehicle (PAN group, n=13) or 2-hydroxyestradiol (10 μg/kg/hour, PAN+2OHE group, n=13). Assignment to the PAN and PAN+2OHE groups was random. Six animals in the PAN group and 2 animals in the PAN+2OHE group died during the treatment, and these animals were not used in the final data analysis.
At 12 weeks into treatment, animals were anesthetized with pentobarbital (45 mg/kg i.p.) and instrumented for measurements of renal hemodynamics and excretory function. Two polyethylene (PE)-50 catheters were inserted into left jugular vein for delivery of supplemental anesthetics and saline infusion (50 μl/min), respectively. Another PE-50 catheter was inserted into left carotid artery and connected to a blood-pressure analyzer (Micro-Med., Inc., Louisville, Ky.) for continuous measurement of blood pressure and heart rate. A PE-10 catheter was inserted into the left ureter to facilitate collection of urine, and a flow probe (Model 1RB; Transonic Systems, Inc., Ithaca, N.Y.) was placed on the left renal artery for determination of renal blood flow, which was used to calculate renal vascular resistance. Next, an infusion of ^14C-inulin (0.035 μCi/20 μl saline/min) was initiated and after 60 minutes, two 30-minute clearance periods were conducted. A mid-point blood sample (300 μl) was collected and plasma and urine ^14C-inulin radioactivity was measured. Renal clearance of ^14C-inulin was calculated as an estimate of glomerular filtration rate.

[2] = system: proliferating cell nuclear antigen (PCNA); test: Glomerular immunohistochemical staining for PCNA, quantitative image analysis; conditions: 12 weeks of treatment, kidney sections
Protocol: (§2) Animals were killed by an overdose of anesthetic and kidneys were removed and weighed. One kidney was fixed in 10% formalin buffer and the second kidney was quick-frozen in liquid nitrogen and stored at −70° C. Kidney tissue samples were sectioned and processed into paraffin blocks for light microscopy. For labeling of collagen IV, renal cortical segments (5 μm) were incubated overnight at 4° C. with rabbit anti-mouse collagen IV antibody (dilution 1/500 ) obtained from Chemicon International Inc. (Temecula, Calif.). A primary monoclonal mouse antibody ( 1/200 dilution; Dako Corporation, Carpenteria, Calif.) was used to label proliferating cell nuclear antigen (PCNA). […] Nonspecific staining was assessed by replacing the primary antibody with phosphate buffered saline. […] Immunochemical staining for collagen IV and PCNA quantitatively was done with a SAMBA 4000 image analyzer (Image Products International, Chantilly, Va.) using specialized computer software (Immuno-Analysis, version 4.1, Microsoft, Richmond, Wash.), a color video camera and a Compaq computer. […] Ten high power fields (×400) were assessed for staining density or positively marked cells for ED-1. […] Staining intensity of positive areas was also assessed (mean optical density) and a mean quick score was then calculated (mean optical density×labeling index).

PAN-nephropathic rats [3] = test: Metabolic cage measurements (24-hour urine, intake, plasma) in PAN-nephropathic rats
Protocol: A total of thirty-five, male Sprague Dawley rats (approximately 290 grams) were used. Rats were housed in the University of Pittsburgh Medical Center animal care facility (temperature, 22° C.; light cycle, 12 hours; relative humidity, 55%). Animals were fed Pro Lab RMH 3000 rodent diet (PMI Nutrition Inc., St Louis, Mo.) and were given water ad libitum. Institutional guidelines for animal welfare were followed, and the University of Pittsburgh Institutional Animal Care and Use Committee approved experimental protocols.
Before initiating treatment, and 3, and 6 and 11 weeks into the treatments, animals were placed in metabolic cages and allowed to acclimatize for two days before conducting the 24-hour measurements of urine volume, food and water intake and urinary sodium, potassium, creatinine, and protein excretion. Tail vein blood samples were also taken for measurement of plasma sodium, potassium, albumin and creatinine. Plasma and urine samples were analyzed for sodium and potassium concentrations using a flame photometer (Model IL-943; Instrumentations Laboratory Inc., Lexington, Ma.) and for creatinine concentrations using a creatinine analyzer (Creatinine Analyzer 2, Beckman Instrument, Inc., Fullerton Calif., USA). Total urine proteins were measured by a spectrophotometric assay using bicinchoninic acid reagent (Pierce; Rockford, Ill.) and a modification of Lowry method. Lowry, O. H., et al., J. Biol. Chem. 193: 265 (1951), the disclosure of which is incorporated herein by reference.
as §1

ED1 positive cells = test: Immunohistochemical staining for ED1 positive cells (macrophage infiltration) in glomeruli and interstitium; conditions: 12 weeks of treatment, kidney sections
Protocol: as §2

PAN-nephropathic rats [4] = test: Plasma testosterone radioimmunoassay; conditions: 12 weeks of treatment, male rats
Protocol: An aliquot of mid-point blood sample drawn during the first clearance period was used for testosterone measurements. Plasma testosterone levels were determined by radioimmunoassay using a commercial kit provided by ICN Biomedicals, Inc. (Costa Mesa, Calif.) according to the protocol of the manufacturer.

PAN-treated rats = test: Mortality during 12-week treatment of PAN-treated rats; conditions: n=13 per group
Protocol: as §1

collagen IV = test: Glomerular immunohistochemical staining for collagen IV, quantitative image analysis; conditions: 12 weeks of treatment, kidney sections
Protocol: as §2

SMILES: CN(C)c1ncnc2c1ncn2[C@@H]1O[C@H](CO)[C@@H](N)[C@H]1O [PAN, puromycin aminonucleoside]
- Blood pressure (in words) (PAN-nephropathic rats [1]): increased blood pressure
- GFR, inulin clearance (in words) (PAN-nephropathic rats [1]): decreased renal blood flow, renal plasma flow, hematocrit and glomerular filtration rate
- Hematocrit (PAN-nephropathic rats [1]): 27 ± 2%
- Left Kidney (PAN-nephropathic rats [1]): 2.10 ± 0.13 g
- Glomerular Filtration Rate (PAN-nephropathic rats [1]; 14C-inulin clearance): 0.21 ± 0.07 ml/min/g kidney
- Body Weight (PAN-nephropathic rats [1]; acute experiment): 368 ± 15
- Mean Blood Pressure (PAN-nephropathic rats [1]; anesthetized): 153.0 ± 6.1 mm Hg
- Renal Blood Flow (PAN-nephropathic rats [1]; anesthetized): 2.73 ± 0.24 ml/min/g kidney
- Renal Plasma Flow (PAN-nephropathic rats [1]; anesthetized): 2.00 ± 0.19 ml/min/g kidney
- Renal Vascular Resistance (PAN-nephropathic rats [1]; anesthetized): 63.6 ± 7.6 mm Hg/ml/min/g kid
- Urine Volume (PAN-nephropathic rats [1]; anesthetized): 4.43 ± 0.85 μl/min/g kidney
- Labeling index of glomerular immunoreactive PCNA (in words, FIG. 3) [2]: markedly expanded
- Body Weight (PAN-nephropathic rats [3]; 0 wks of treatment (baseline)): 293 ± 4 g
- Creatinine Excretion (PAN-nephropathic rats [3]; 0 wks of treatment (baseline)): 14.9 ± 2.5 mg/day
- FE - K+ (fractional excretion of potassium) (PAN-nephropathic rats [3]; 0 wks of treatment (baseline)): 10.5 ± 0.7%
- FE - Na+ (fractional excretion of sodium) (PAN-nephropathic rats [3]; 0 wks of treatment (baseline)): 0.13 ± 0.01%
- Fluid Intake (PAN-nephropathic rats [3]; 0 wks of treatment (baseline)): 5.33 ± 0.37 mL/h/kg
- Food Intake (PAN-nephropathic rats [3]; 0 wks of treatment (baseline)): 75 ± 2 g/kg/day
- Plasma Cholesterol (PAN-nephropathic rats [3]; 0 wks of treatment (baseline)): 53.6 ± 2.3 mg/dL
- Potassium Excretion (PAN-nephropathic rats [3]; 0 wks of treatment (baseline)): 10.9 ± 0.72 mEq/day/kg
- Sodium Excretion (PAN-nephropathic rats [3]; 0 wks of treatment (baseline)): 4.48 ± 0.95 mEq/day/kg
- Urine Volume (PAN-nephropathic rats [3]; 0 wks of treatment (baseline)): 1.78 ± 0.275 mL/h/kg
- Body Weight (PAN-nephropathic rats [3]; 3 wks of treatment): 313 ± 1 g
- Creatinine Excretion (PAN-nephropathic rats [3]; 3 wks of treatment): 11.1 ± 1.1 mg/day
- FE - K+ (fractional excretion of potassium) (PAN-nephropathic rats [3]; 3 wks of treatment): 27.3 ± 3.7 %
- FE - Na+ (fractional excretion of sodium) (PAN-nephropathic rats [3]; 3 wks of treatment): 0.37 ± 0.06%
- Fluid Intake (PAN-nephropathic rats [3]; 3 wks of treatment): 7.58 ± 0.667 mL/h/kg
- Food Intake (PAN-nephropathic rats [3]; 3 wks of treatment): 74 ± 4 g/kg/day
- Plasma Cholesterol (PAN-nephropathic rats [3]; 3 wks of treatment): 353 ± 39.4 mg/dL
- Potassium Excretion (PAN-nephropathic rats [3]; 3 wks of treatment): 10.7 ± 0.82 mEq/day/kg
- Sodium Excretion (PAN-nephropathic rats [3]; 3 wks of treatment): 3.80 ± 0.58 mEq/day/kg
- Urine Volume (PAN-nephropathic rats [3]; 3 wks of treatment): 4.192 ± 0.462 mL/h/kg
- Body Weight (PAN-nephropathic rats [3]; 6 wks of treatment): 337 ± 15 g
- Creatinine Excretion (PAN-nephropathic rats [3]; 6 wks of treatment): 8.8 ± 0.9 mg/day
- FE - K+ (fractional excretion of potassium) (PAN-nephropathic rats [3]; 6 wks of treatment): 30.1 ± 4.6 %
- FE - Na+ (fractional excretion of sodium) (PAN-nephropathic rats [3]; 6 wks of treatment): 0.71 ± 0.13 %
- Fluid Intake (PAN-nephropathic rats [3]; 6 wks of treatment): 6.92 ± 0.542 mL/h/kg
- Food Intake (PAN-nephropathic rats [3]; 6 wks of treatment): 69 ± 3 g/kg/day
- Plasma Cholesterol (PAN-nephropathic rats [3]; 6 wks of treatment): 283.5 ± 39.5 mg/dL
- Potassium Excretion (PAN-nephropathic rats [3]; 6 wks of treatment): 8.39 ± 0.61 mEq/day/kg
- Sodium Excretion (PAN-nephropathic rats [3]; 6 wks of treatment): 3.92 ± 0.38 mEq/day/kg
- Urine Volume (PAN-nephropathic rats [3]; 6 wks of treatment): 3.9 ± 0.512 mL/h/kg
- Body Weight (PAN-nephropathic rats [3]; 11 wks of treatment): 382 ± 27 g
- Creatinine Excretion (PAN-nephropathic rats [3]; 11 wks of treatment): 18.7 ± 3.0 mg/day
- FE - K+ (fractional excretion of potassium) (PAN-nephropathic rats [3]; 11 wks of treatment): 47.1 ± 7.7 %
- FE - Na+ (fractional excretion of sodium) (PAN-nephropathic rats [3]; 11 wks of treatment): 1.18 ± 0.35 %
- Fluid Intake (PAN-nephropathic rats [3]; 11 wks of treatment): 6.62 ± 0.708 mL/h/kg
- Food Intake (PAN-nephropathic rats [3]; 11 wks of treatment): 53 ± 5 g/kg/day
- Plasma Cholesterol (PAN-nephropathic rats [3]; 11 wks of treatment): 349.6 ± 43.0 mg/dL
- Potassium Excretion (PAN-nephropathic rats [3]; 11 wks of treatment): 9.63 ± 1.60 mEq/day/kg
- Sodium Excretion (PAN-nephropathic rats [3]; 11 wks of treatment): 4.18 ± 0.58 mEq/day/kg
- Urine Volume (PAN-nephropathic rats [3]; 11 wks of treatment): 4.712 ± 0.692 mL/h/kg
- Creatinine clearance (in words, FIGS. 1B and 1C) (PAN-nephropathic rats [3]; chronic treatment): reduced creatinine clearance
- Plasma creatinine levels (in words, FIG. 1A) (PAN-nephropathic rats [3]; chronic treatment): increased plasma creatinine levels
- Urinary protein excretion (UPE; in words, FIG. 2A) (PAN-nephropathic rats [3]; chronic treatment): induced severe proteinuria
- Number of ED1 positive cells in glomeruli and interstitium (in words, FIG. 4) (ED1 positive cells): several-fold increase in the number of ED1 positive cells
- Plasma testosterone levels (PAN-nephropathic rats [4]): 0.92 ± 0.27 ng/mL
- Animals died during the treatment (PAN-treated rats): Six
- Glomerular collagen IV, labeling index (in words, FIGS. 5 and 6) (collagen IV): significant increase in glomerular collagen IV content
